Results from the NIST ThermoML archive (doi:10.1016/j.jct.2012.09.012).

Tests used:
[1] = molar heat capacity at constant pressure; settings: 101 kPa, Liquid, Small sample (50 mg) DSC
[2] = Liquid, Vibrating tube method
[3] = xn = mol fraction of the nth substance listed; settings: Liquid, Vibrating tube method, x2 = 0
[4] = molar heat capacity at constant pressure; xn = mol fraction of the nth substance listed; settings: 101 kPa, Liquid, Small sample (50 mg) DSC, x2 = 0

CC1=CC[C@H]2C[C@@H]1C2(C)C [(S)-2-pinene]
[1]
Settings	molar heat capacity at constant pressure [J/K/mol]
313.16 K	250.67
318.16 K	252.03
323.16 K	256.12
328.22 K	257.48
333.22 K	260.21
338.19 K	264.29
343.18 K	267.02
348.15 K	269.74
353.18 K	272.47
358.15 K	275.19
363.18 K	277.92
368.17 K	279.28
373.21 K	282
378.2 K	284.73
383.17 K	287.45
388.2 K	291.54
393.17 K	292.9
398.2 K	294.27
403.19 K	296.99
408.16 K	299.71
413.19 K	301.08
418.19 K	303.8

mass density [kg/m3], [2]
Settings	283.15 K	298.15 K	313.15 K	328.15 K	343.15 K	358.15 K
20000 kPa	880	868.8	858	846.7	835.9	825
25000 kPa	883.2	872.1	861.3	850.4	839.7	829.2
30000 kPa	886.3	875.3	864.7	854	843.8	833.3
35000 kPa	889.4	878.6	867.9	857.5	847.7	837.4
40000 kPa	892.5	881.9	871.3	861.1	851.4	841.5

C=C1CCC2CC1C2(C)C (stereo not drawn) [β-pinene]
[1]
Settings	molar heat capacity at constant pressure [J/K/mol]
313.16 K	249.31
318.16 K	252.03
323.16 K	254.76
328.22 K	257.48
333.22 K	260.21
338.19 K	262.93
343.18 K	265.66
348.15 K	268.38
353.18 K	271.11
358.15 K	273.83
363.18 K	277.92
368.17 K	280.64
373.21 K	283.37
378.2 K	284.73
383.17 K	287.45
388.2 K	290.18
393.17 K	292.9
398.2 K	295.63
403.19 K	299.71
408.16 K	302.44
413.19 K	303.8
418.19 K	306.53

mass density [kg/m3], [2]
Settings	283.15 K	298.15 K	313.15 K	328.15 K	343.15 K	358.15 K
20000 kPa	891.3	880.2	869.3	858.2	847.7	837
25000 kPa	894.2	883.3	872.6	861.7	851.4	840.9
30000 kPa	897	886.3	875.7	865.2	855	844.8
35000 kPa	899.9	889.3	878.8	868.7	858.6	848.7
40000 kPa	902.6	892.2	882	872.2	862.1	852.6

C=C1CCC2CC1C2(C)C (stereo not drawn) [β-pinene] + CC1=CC[C@H]2C[C@@H]1C2(C)C
mass density [kg/m3], [3]
Settings	283.15 K	298.15 K	313.15 K	328.15 K	343.15 K	358.15 K
20000 kPa	891.3	880.2	869.3	858.2	847.7	837
25000 kPa	894.2	883.3	872.6	861.7	851.4	840.9
30000 kPa	897	886.3	875.7	865.2	855	844.8
35000 kPa	899.9	889.3	878.8	868.7	858.6	848.7
40000 kPa	902.6	892.2	882	872.2	862.1	852.6

[4]
Settings	molar heat capacity at constant pressure [J/K/mol]
313.16 K	249.31
318.16 K	252.03
323.16 K	254.76
328.22 K	257.48
333.22 K	260.21
338.19 K	262.93
343.18 K	265.66
348.15 K	268.38
353.18 K	271.11
358.15 K	273.83
363.18 K	277.92
368.17 K	280.64
373.21 K	283.37
378.2 K	284.73
383.17 K	287.45
388.2 K	290.18
393.17 K	292.9
398.2 K	295.63
403.19 K	299.71
408.16 K	302.44
413.19 K	303.8
418.19 K	306.53
